# Test results from ChEMBL document CHEMBL3507680, “University of Dundee, Gates Library screen for HepG2 cell viability”.
# Assay: Human HepG2 cell viability assay in 384 well format
# Assay type: toxicity, cell-based
# Set-up: dose 125 nL, time 70.5 hour; cytotoxicity at 70.5 h: concentration not given beside the values
# Details: HepG2 cells, read-out: Inhibition
row,SMILES,cytotoxicity at 70.5 h
1,COc1ccc(C(=O)C2CCCN(Cc3ccon3)C2)c(OC)c1 (configuration not stated),-10.4%
2,COc1cccc2c1OCC(C(=O)N1CCN(C3CCCC3)C(=O)C1)C2 (configuration not stated),-5.59%
3,CN(C)Cc1ccc(C2CCCCN2C(=O)c2cccnn2)cc1 (configuration not stated),2.83%
4,CSCc1nc(CNC(=O)c2cnn(C(C)C)c2)cs1,-11.2%
5,CSc1nccc(N2CCC(NCc3ccc4c(c3)OCO4)CC2)n1,4.69%
6,Cc1cc2[nH]c(CN3CCOC(c4ccc(Cl)cc4)C3)cc(=O)n2n1 (configuration not stated),-2.79%
7,CC(C)(CN1CCCC1)CN1CCC(Cn2cc(CCO)nn2)CC1,18.9%
8,CN(C)Cc1ccc(C(=O)N2CCCC(COc3ccc(F)cc3)C2)o1 (configuration not stated),-5.29%
9,CN(C)c1nc2c(c(N3CCC(O)CC3)n1)CN(CC(C)(C)C)CC2,-13.5%
10,CC1(C)CC(N2CCN(C3CCCC3)C(CCO)C2)CC(C)(C)C1 (configuration not stated),-8.65%
11,CCn1c(C2CCN(C(=O)c3ccc4sc(C)nc4c3)CC2)n[nH]c1=O,-17.3%
12,CCCn1ccnc1CN1C[C@@H](NC(C)=O)[C@H](c2ccc(OC)cc2)C1,15.8%
13,CCOc1ccc(OCc2nccc(-c3cc(C(=O)O)ccn3)n2)cc1,16%
14,O=C(Nc1ccccc1OCCc1ccccn1)NC1CCOCC1,18.2%
15,NC(=O)c1cc2c(nc1N1C[C@H]3OC(=O)N(C4CCCC4)[C@H]3C1)CCC2,-10.7%
16,Cc1nn(-c2ccccc2)c(C)c1-c1ccnc(N2CCCOCC2)n1,-3.17%
17,CS(=O)(=O)N[C@H]1CN(C(=O)CCc2ccc(=O)[nH]n2)C[C@@H]1C1CC1,-7.22%
18,CN(CCSc1ccccc1)C(=O)c1cn2c(n1)CNCC2,-12.8%
19,Cc1ccc(-c2ccnc(NCC(O)c3ccc(O)cc3)n2)c(C)n1 (configuration not stated),-4.44%
20,Cc1nc(O)cc(CCNc2nc(N(C)C)nc(C)c2C)n1,22%
21,CNC(=O)Cc1ccc(-n2ccnc2-c2ccc(C(=O)O)s2)cc1,-5.64%
22,CNC(=O)C(C)(C)NC(=O)c1cc(COc2ccccc2OC)[nH]n1,-8.56%
23,O=C1NC[C@@]2(C(=O)O)CN(Cc3cccc(CN4CCOCC4)c3)C[C@@H]12,1.62%

row,SMILES,cytotoxicity at 70.5 h
1,CN(CC1CCCCO1)c1nncc(-c2cccc(F)c2)n1 (configuration not stated),-3.62%
2,CCCOCC(=O)N1CCc2nc(NC)nc(C(=O)N3CCCC3)c2C1,-4.23%
3,CN[C@@H](CO)C(=O)NCc1cc2n(n1)CCCN(C1CCCCC1)C2,-6.96%
4,CC(C)(C)n1ccc(C(=O)N2CCCC(c3ncc[nH]3)C2)c1 (configuration not stated),-1.92%
5,Cc1ncsc1CN(Cc1ccccc1)Cc1ccncc1,8.23%
6,Cc1ccccc1CS(=O)(=O)NCCCN1CCCC1,-2.2%
7,CCOc1ccccc1-n1c(C2CC(=O)N(C)C2)n[nH]c1=O (configuration not stated),-25.4%
8,CCn1ncnc1C(C)Nc1cc(C2CC2)ncn1 (configuration not stated),-13%
9,COc1cc(C(N)=O)c(N(C)S(C)(=O)=O)cc1OC,-9.06%
10,O=C(c1ccc(O)c(Cl)c1)N1C[C@@H](CN2CCCCCC2)[C@@H](CO)C1,3.21%
11,O=C1CCCCN1CCc1nc(-c2cccnn2)no1,-2.5%
12,Cc1c(C(=O)N2CCC(N3CCCCC3)CC2)n(C)c2ccc(Cl)cc12,-0.949%
13,Cc1ccc(C)c(OC(C)C(=O)Nc2cccnc2)c1 (configuration not stated),-3.32%
14,Cc1ncsc1CCNC(=O)Cn1nc(C)n(Cc2ccccc2)c1=O,-2.97%
15,CSCc1noc(Cn2ccc3ccccc3c2=O)n1,-10.8%
16,CC(C)Cc1ncc2c(n1)CN(c1nc3ccccc3cc1CO)C2,-14.3%
17,c1ccc(CN2CCC(NCCSc3cnn[nH]3)C2)cc1 (configuration not stated),-3.66%
18,COc1ccc(NC2CCCN(Cc3cnc(N(C)C)s3)C2)cc1 (configuration not stated),-6.11%
19,COc1cccc(-c2cc(C(=O)NCCn3nc(C)nc3C)[nH]n2)c1,-7.22%
20,O=C(Cc1nc(-c2ccncc2)n[nH]1)N1CCOCC1,-14.8%
21,CC(C)CN1CCc2[nH]cnc2C12CCN(C(=O)c1cnn(C)c1)CC2,-7.51%
22,COCCN(Cc1ccccc1C)c1nc(C)nc2oc(C)nc12,0.842%
23,Cc1ccc(CN2CCN(c3nc4c(s3)c(C)nn4C)C(C)C2=O)cc1 (configuration not stated),31.2%

row,SMILES,cytotoxicity at 70.5 h
1,Cc1cc(-c2cncnc2)ccc1OCC(N)=O,13.6%
2,CCOc1ccc(C(=O)NC2CC2)cc1C,-7.46%
3,COCCCNC(=O)Cc1nc(-c2ccncc2)n[nH]1,-1.85%
4,COCCN1CCCC2(CCN(c3ncnc(C)c3C)C2)C1=O (configuration not stated),15.5%
5,CCNC(=O)c1cc(OC)c(OC)cc1N(C)S(C)(=O)=O,-8.66%
6,COc1ccc(F)c(-c2cc(NCCO)nc(N)n2)c1,-3.97%
7,CC(=O)N[C@@H]1CN(C(=O)c2cc3ccccc3[nH]2)C[C@H]1c1ccc(C)o1,-9.58%
8,Cc1ccccc1N1CCCN(C(=O)CC2CN(C(C)C)CCO2)CC1 (configuration not stated),0.214%
9,COc1cccc2c1OCC(C(=O)N1CCC(NS(C)(=O)=O)CC1)C2 (configuration not stated),-7.91%
10,COc1ccccc1[C@@H]1CN(CC(=O)N2CCCCC2)C[C@H]1C(=O)O,-7.8%
11,O=C(c1cnn2cc(CCO)cnc12)N1CCOC(C(F)(F)F)C1 (configuration not stated),-13%
12,CCNc1ncc(C(=O)NCCc2csc(CSC)n2)cn1,-4.44%
13,O=C(Nc1ccccc1)N1C[C@H]2CC[C@@H]1CN(Cc1ccccc1)C2,-4.8%
14,Cc1cc(N2CCN(C(=O)C(C)n3ccnc3C(C)C)CC2)cc(C)n1 (configuration not stated),-4.34%
15,CCc1ncc(C(=O)N2CCCC(c3nccn3CCOC)C2)cn1 (configuration not stated),-0.318%
16,COC(=O)N1CCCCC1C(=O)N1CCN(c2cccnc2)CC1 (configuration not stated),6.34%
17,OCc1csc(N2CCN(Cc3cccc(F)c3)CC2)n1,22.2%
18,CCNc1ncc(CN2C[C@@H](C(=O)O)[C@H](C3CC3)C2)cn1,-7.25%
19,CCn1c(CN2CCCC2)nnc1C1CCN(S(=O)(=O)CC)CC1,-2.53%
20,CC1Oc2ccc(S(=O)(=O)NCCCn3ccnc3)cc2NC1=O (configuration not stated),-3.81%
21,CNS(=O)(=O)c1ccsc1C(=O)OC,-5.92%
22,CNC(=O)C1CC(=O)N(c2cccc(F)c2)C1 (configuration not stated),-3.04%
23,CS(=O)(=O)N1CCC(c2nnc(Cn3ccnc3)n2C2CC2)CC1,-3.52%

row,SMILES,cytotoxicity at 70.5 h
1,CCCN(CCOC)c1nc(C)nc2sccc12,13.4%
2,COc1ccc(OC)c(C2CCN(C(=O)[C@H]3CC[C@@H](O)CC3)C2)c1 (some centres not stated),-9.68%
3,CCOc1cccc(C(C(=O)O)N(C)Cc2cc(C)no2)c1 (configuration not stated),-9.85%
4,O=C(Cc1n[nH]c(-c2cncc(Br)c2)n1)NCc1cccnc1,-9.48%
5,CN(C)C[C@@H]1CN(C(=O)c2cc(F)ccc2F)C[C@@H]1CO,-5.47%
6,CN1CCC2(CC1)CN(C(=O)c1onc3ccccc13)CCCN2C,26.8%
7,CCNC(=O)[C@@H]1C[C@H](N)CN1C(=O)CCc1ccccc1Cl,-4.67%
8,CN(C)CC1(O)CCN(C(=O)Cc2ccc(Cl)c(Cl)c2)C1 (configuration not stated),10.5%
9,CCN(Cc1ccoc1)Cc1nc(COC)no1,-7.42%
10,Cc1ccccc1CSc1nc(N)cc(N2CCCC(O)C2)n1 (configuration not stated),0.482%
11,O=S(=O)(Nc1ccc2c(c1)OCCO2)N1CCCCC1,-0.954%
12,C[C@@H]1CN(C(=O)C2(N3CCCCC3)Cc3ccccc3C2)C[C@H](C)O1,-9%
13,O=C1[C@@H]2CN(Cc3cc4ccccc4o3)C[C@]2(C(=O)O)CN1CC1CC1,-4.85%
14,Cc1nnc2sc(-c3cc(C(C)C)n[nH]3)nn12,-4.97%
15,O=C(O)c1ccc(CC2CCN(S(=O)(=O)N3CCOCC3)C2)cc1 (configuration not stated),-5.44%
16,Cc1ccc(NC(=O)c2coc(C)n2)c(C)c1,-6.55%
17,c1ccc2sc(N3CCC4(CCCN4Cc4ncc[nH]4)CC3)nc2c1,-7.49%
18,CCNc1cc(N2CCN(C(=O)c3ccc(OC)cc3)CC2)nc(C)n1,-2.56%
19,CNc1ccnc(NCCC(=O)Nc2ccccc2C)n1,-4.65%
20,Cc1ncc(CN2CCC(CNS(=O)(=O)C3CC3)C2)cn1 (configuration not stated),13.4%
21,O=C1COc2ccc(C(=O)NS(=O)(=O)c3ccccc3Cl)cc2N1,-14.9%
22,O=C1COc2ccc(C(=O)NS(=O)(=O)c3ccccc3F)cc2N1,-8.64%
23,CCN(CC1CCOC1)C(=O)c1ccccc1S(=O)(=O)CC (configuration not stated),10.2%

row,SMILES,cytotoxicity at 70.5 h
1,Cc1nn(C)c(C)c1CCC(=O)N1CCCC(n2cccn2)C1 (configuration not stated),21.7%
2,Cn1ccnc1CN1CCCN(C(=O)c2ccc3[nH]cnc3c2)CC1,-8.02%
3,NC(=O)C1CCN(C(=O)NCc2ccc(-c3ccn[nH]3)cc2)CC1,-6.11%
4,CC(=O)c1ccc(N2CCN(C(=O)NCc3cc[nH]n3)CC2)cc1,-2.83%
5,CC(C)(C)c1ncc(C(=O)NCCNC(=O)Cc2ccccc2)s1,-5.68%
6,CC(C)(C)c1ncc(C(=O)NCCNC(=O)c2cccs2)s1,12.5%
7,COc1c(CNC2CCC(O)CC2)c(C(C)C)nn1C (configuration not stated),-5.04%
8,COc1c(CNC2CCN(C(=O)C(C)C)CC2)c(C(C)C)nn1C,19.1%
9,O=C(NCc1cc[nH]n1)N1CCN(c2ncccn2)CC1,-8.57%
10,Cc1ncc2c(n1)CN(CC(=O)Nc1cccnc1)CC2,17.5%
11,Cc1ccc(F)cc1NS(=O)(=O)c1cc2c(c(C(=O)O)c1)OCCO2,-5.92%
12,Cc1ccc(C)c(NS(=O)(=O)c2cc3c(c(C(=O)O)c2)OCCO3)c1,-8.38%
13,O=C(O)c1cc(S(=O)(=O)Nc2cccc(F)c2F)cc2c1OCCO2,-0.966%
14,Cc1cc(C(=O)N2CCCN(Cc3nccn3C)CC2)no1,12.6%
15,Cc1noc(C)c1CCC(=O)N1CCCC(n2cccn2)C1 (configuration not stated),-0.943%
16,CNC(=O)c1ccc(C(=O)N2CCCC(n3ccnc3C)C2)cn1 (configuration not stated),-3.51%
17,CC(C)CN1CC(C(=O)NCCOc2ccc3c(c2)OCO3)CC1=O (configuration not stated),3.51%
18,O=S1(=O)CCC(N(Cc2nc3ccccc3o2)Cc2cccs2)C1 (configuration not stated),19.2%
19,CSc1nccn1-c1cccc(C(=O)NCCC(=O)NC(C)C)c1,-3.09%
20,Cc1noc(C)c1CN(Cc1cccs1)C1CCS(=O)(=O)C1 (configuration not stated),15.7%
